Marks after values point to notes of the source that are not given here. Each block holds one molecule with its values, some of them ahead of it.
What was measured:
[1] = mouse, in vivo, 420 min
Method: In this study, fluoropyrimidines, such as 5-FU, doxifluridine [5'-deoxy-5-fluorouridine] and capecitabine [5'-deoxy-5-fluoro-N^4-(n-pentyloxycarbonyl)cytidine], were given to BALB/c nude mice bearing the human gastric cancer xenograft MKN28 in combination with either compound A or 5-EU. Then, 5-FU levels in the plasma and tumor tissues were measured at 0.25, 0.5, 2, 4 and 7 hours after each fluoropyrimidine administration (n = 3 mice), and 5-FU AUC was calculated. […]

DPD [2] = target: T1, DPD (Mus musculus, UniProt Q8CHR6); assay: DPD activity in liver and tumor tissues of PC-3 xenograft mice after administration; assay type: in vivo, BALB/c nude mice; conditions: Liver, Compound A 0.5 mmol/kg, 5-EU 0.05 µmol/kg
T1 construct: The liver and tumor tissues were resected out from each group of three mice; from tissue; host or cells: liver (mouse host) and PC-3 tumour xenograft tissue from BALB/c nude mice
T1 sequence (Q8CHR6 1-1025): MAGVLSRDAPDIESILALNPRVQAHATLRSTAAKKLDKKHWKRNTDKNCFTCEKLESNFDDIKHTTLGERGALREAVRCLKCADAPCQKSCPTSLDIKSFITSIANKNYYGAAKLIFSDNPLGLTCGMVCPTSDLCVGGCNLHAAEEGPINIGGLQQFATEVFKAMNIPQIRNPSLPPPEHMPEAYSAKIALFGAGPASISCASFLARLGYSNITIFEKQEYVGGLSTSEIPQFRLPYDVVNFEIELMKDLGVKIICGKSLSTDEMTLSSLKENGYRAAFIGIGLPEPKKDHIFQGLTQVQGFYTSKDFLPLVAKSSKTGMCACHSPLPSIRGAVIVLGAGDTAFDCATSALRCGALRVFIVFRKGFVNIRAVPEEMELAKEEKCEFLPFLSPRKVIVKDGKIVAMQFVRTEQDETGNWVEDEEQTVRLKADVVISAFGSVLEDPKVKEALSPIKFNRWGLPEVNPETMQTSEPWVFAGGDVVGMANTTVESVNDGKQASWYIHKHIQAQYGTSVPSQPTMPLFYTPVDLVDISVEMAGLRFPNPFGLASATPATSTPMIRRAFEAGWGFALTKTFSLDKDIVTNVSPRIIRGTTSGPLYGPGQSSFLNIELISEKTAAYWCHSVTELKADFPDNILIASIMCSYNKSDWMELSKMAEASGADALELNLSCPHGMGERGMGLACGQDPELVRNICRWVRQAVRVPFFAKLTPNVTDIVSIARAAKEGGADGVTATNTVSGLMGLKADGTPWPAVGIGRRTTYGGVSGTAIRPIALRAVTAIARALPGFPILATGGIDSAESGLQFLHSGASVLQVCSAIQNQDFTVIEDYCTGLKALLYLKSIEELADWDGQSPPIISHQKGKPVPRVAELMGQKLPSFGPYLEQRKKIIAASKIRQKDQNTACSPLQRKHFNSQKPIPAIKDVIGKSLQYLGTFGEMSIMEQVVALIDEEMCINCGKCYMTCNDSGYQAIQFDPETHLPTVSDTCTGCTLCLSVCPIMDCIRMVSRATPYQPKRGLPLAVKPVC
Method: (§1) The liver and tumor tissues were resected out from each group of three mice at 2 and 8 hours after the administration of the Compound A (0.5 mmol/kg) and 5-EU ([…]). DPD activity in these tissues was then measured as described elsewhere (Naguib et al., Cancer Research 45, 5405-5412, 1985). […] Table 1. Inhibition of DPD activity by Compound A of Example 6

DPD [3] = target: T2, DPD (Homo sapiens, UniProt Q12882); assay: as above; assay type: in vivo, BALB/c nude mice; conditions: Tumor (PC-3), Compound A 0.5 mmol/kg, 5-EU 0.05 µmol/kg
T2 construct: The liver and tumor tissues were resected out from each group of three mice; from tissue; host or cells: liver (mouse host) and PC-3 tumour xenograft tissue from BALB/c nude mice
T2 sequence (Q12882 4-1025): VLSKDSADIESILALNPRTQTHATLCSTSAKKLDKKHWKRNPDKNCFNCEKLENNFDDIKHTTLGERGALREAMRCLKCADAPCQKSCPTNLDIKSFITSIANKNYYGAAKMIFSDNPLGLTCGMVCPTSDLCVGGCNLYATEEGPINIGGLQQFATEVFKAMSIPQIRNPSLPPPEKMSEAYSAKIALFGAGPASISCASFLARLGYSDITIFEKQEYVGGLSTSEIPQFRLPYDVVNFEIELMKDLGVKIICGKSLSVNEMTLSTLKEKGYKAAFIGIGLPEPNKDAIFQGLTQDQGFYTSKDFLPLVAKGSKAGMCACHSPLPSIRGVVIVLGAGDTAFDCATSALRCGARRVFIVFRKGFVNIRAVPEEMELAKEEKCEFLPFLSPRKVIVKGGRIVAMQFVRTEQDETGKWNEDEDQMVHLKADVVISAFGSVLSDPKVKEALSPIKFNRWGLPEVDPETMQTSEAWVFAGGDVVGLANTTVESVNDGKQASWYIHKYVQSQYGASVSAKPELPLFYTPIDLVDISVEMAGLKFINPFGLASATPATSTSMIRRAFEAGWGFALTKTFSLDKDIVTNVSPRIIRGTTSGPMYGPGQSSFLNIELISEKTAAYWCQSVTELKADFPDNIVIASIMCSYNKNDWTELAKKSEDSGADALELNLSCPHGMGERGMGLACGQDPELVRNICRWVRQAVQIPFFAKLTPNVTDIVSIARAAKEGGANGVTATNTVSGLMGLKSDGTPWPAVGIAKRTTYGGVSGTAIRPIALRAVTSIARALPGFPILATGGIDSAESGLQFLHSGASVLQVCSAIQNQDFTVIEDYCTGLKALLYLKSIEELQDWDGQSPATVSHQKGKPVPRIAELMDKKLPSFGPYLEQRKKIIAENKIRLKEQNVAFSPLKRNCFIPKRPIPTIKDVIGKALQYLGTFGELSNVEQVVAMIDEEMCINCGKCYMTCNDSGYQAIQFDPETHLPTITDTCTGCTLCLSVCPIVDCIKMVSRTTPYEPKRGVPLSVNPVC
Method: as §1

[4] = tested on: human prostate cancer xenograft PC-3; assay: Enhancement of capecitabine antitumor activity in PC-3 xenograft; conditions: oral
Method: Compound A of Example 6 was examined for its activity to enhance the efficacy of capecitabine in BALB/c nude mice bearing the human prostate cancer xenograft PC-3. Compound A and capecitabine were orally given simultaneously or sequentially 5 successive days per week for 3 weeks starting on day 53 after the tumor inoculation when the tumor becomes palpable. On day 75, tumor volume gain and the percentage of the tumor growth inhibition were calculated.

[5] = Cytotoxicity of compound A itself (data not shown)
[6] = 2 hr after administration, control 288
[7] = 8 hr after administration, control 162
[8] = 2 hr after administration, control 31
[9] = 8 hr after administration, control 29
[10] = Capecitabine 1.0 mmol/kg/d + Compound A 1.0 µmol/kg/d given one hour prior to capecitabine
[11] = Capecitabine 1.0 mmol/kg/d + Compound A 1.0 µmol/kg/d given simultaneously

5-FU AUC Plasma [1]: 2.6 nmolohr/mL | 5-FU AUC Tumor [1]: 8.0 nmolohr/mL
SMILES: C[C@H]1O[C@@H](n2cc(F)c(=O)[nH]c2=O)[C@H](O)[C@@H]1O [Doxifluridine, 5'-deoxy-5-fluorouridine]

DPD activities (DPD [2]; [6]): 46 pmol/mg protein/min | DPD activities (DPD [2]; [7]): 83 pmol/mg protein/min | DPD activities (DPD [3]; [8]): 17 pmol/mg protein/min | DPD activities (DPD [3]; [9]): 13 pmol/mg protein/min
SMILES: C#Cc1c[nH]c(=O)[nH]c1=O [Example 5-EU, 5-ethynyluracil]

5-FU AUC Tumor [1]: 30 nmolohr/mL
SMILES: CCCCCOC(=O)Nc1nc(=O)n([C@@H]2O[C@H](C)[C@@H](O)[C@H]2O)cc1F [Capecitabine, 5'-deoxy-5-fluoro-N^4-(n-pentyloxycarbonyl)cytidine]
Tumor growth inhibition (%) Day 75 ([4]; Capecitabine 1.0 mmol/kg/d alone, 5 successive days per week for 3 weeks): 23% | Tumor volume change (mm^3) Day 53-75 ([4]; Capecitabine 1.0 mmol/kg/d alone, 5 successive days per week for 3 weeks, control 981): 757 mm^3 | Body weight change (g) Day 75 ([4]; Capecitabine 1.0 mmol/kg/d alone, control -3.6): -3.4 g

DPD activities (DPD [2]; [6]): 177 pmol/mg protein/min | DPD activities (DPD [2]; [7]): 326 pmol/mg protein/min | DPD activities (DPD [3]; [8]): 9 pmol/mg protein/min | DPD activities (DPD [3]; [9]): 9 pmol/mg protein/min
SMILES: C#Cc1cn([C@@H]2O[C@H](C)[C@@H](O)[C@H]2O)c(=O)nc1NC(=O)OCCCCC [Compound A, 5'-deoxy-5-ethynyl-N^4-(n-pentyloxycarbonyl)cytidine]
Body weight change (g) Day 75 [4, 10]: -0.3 g | Tumor growth inhibition (%) Day 75 [4, 10]: 80% | Tumor volume change (mm^3) Day 53-75 ([4]; Capecitabine 1.0 mmol/kg/d + Compound A 1.0 µmol/kg/d given one hour prior to capecitabine, p < 0.05 vs control): 201* mm^3 | Body weight change (g) Day 75 [4, 11]: -1.8 g | Tumor growth inhibition (%) Day 75 [4, 11]: 67% | Tumor volume change (mm^3) Day 53-75 ([4]; Capecitabine 1.0 mmol/kg/d + Compound A 1.0 µmol/kg/d given simultaneously, p < 0.05 vs control): 323* mm^3 | cytotoxicity [5]: not cytotoxic

Reference: patent EP0882734B1, “5'-Deoxy-cytidine derivatives” (F. Hoffmann-La Roche AG, priority 1997, dated 1998)
